Consider 19 compounds from patent US20210198277A1, “AMINE-SUBSTITUTED ARYL OR HETEROARYL COMPOUNDS” (Epizyme, Inc., priority 2016, published 2021).

The assay concerns the target T1, EHMT1 (Homo sapiens, UniProt Q9H9B1).
T1 sequence (Q9H9B1 1-1298): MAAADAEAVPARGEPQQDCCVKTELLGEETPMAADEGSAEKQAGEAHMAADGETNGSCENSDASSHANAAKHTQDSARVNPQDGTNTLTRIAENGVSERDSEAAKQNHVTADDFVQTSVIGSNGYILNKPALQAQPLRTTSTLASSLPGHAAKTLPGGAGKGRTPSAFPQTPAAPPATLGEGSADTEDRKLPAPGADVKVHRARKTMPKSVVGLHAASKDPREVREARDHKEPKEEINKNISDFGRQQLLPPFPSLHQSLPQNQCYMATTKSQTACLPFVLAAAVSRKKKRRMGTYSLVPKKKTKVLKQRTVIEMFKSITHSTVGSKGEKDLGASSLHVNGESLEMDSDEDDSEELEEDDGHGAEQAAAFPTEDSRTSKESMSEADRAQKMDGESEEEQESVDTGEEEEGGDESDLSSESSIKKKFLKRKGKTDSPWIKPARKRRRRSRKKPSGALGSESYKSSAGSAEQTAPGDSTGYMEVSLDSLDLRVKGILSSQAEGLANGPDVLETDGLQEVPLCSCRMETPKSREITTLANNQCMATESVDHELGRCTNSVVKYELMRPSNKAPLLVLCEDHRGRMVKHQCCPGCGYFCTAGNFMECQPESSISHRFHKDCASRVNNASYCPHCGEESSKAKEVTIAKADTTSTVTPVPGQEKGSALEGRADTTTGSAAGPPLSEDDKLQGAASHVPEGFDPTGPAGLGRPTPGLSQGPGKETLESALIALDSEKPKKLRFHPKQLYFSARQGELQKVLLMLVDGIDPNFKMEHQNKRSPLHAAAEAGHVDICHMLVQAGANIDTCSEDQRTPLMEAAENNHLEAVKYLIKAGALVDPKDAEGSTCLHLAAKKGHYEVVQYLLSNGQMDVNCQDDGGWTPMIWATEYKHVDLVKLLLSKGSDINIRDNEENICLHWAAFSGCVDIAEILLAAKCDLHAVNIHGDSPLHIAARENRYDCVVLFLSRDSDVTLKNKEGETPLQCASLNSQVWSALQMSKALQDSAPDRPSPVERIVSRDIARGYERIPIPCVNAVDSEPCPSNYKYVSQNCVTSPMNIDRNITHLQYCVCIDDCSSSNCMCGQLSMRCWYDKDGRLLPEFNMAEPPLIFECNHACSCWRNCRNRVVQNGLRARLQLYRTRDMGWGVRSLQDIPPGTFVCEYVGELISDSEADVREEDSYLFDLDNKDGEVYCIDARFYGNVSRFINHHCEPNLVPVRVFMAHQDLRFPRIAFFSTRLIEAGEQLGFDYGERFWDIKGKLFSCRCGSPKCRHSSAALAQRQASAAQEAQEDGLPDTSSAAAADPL
In words: EHMT1 enzyme assay on peptide substrate (EHMT1 PEP). The note with it: Table III; read-out: EHMT1 PEP (IC50 μM). It is filed as biochemical.

For `CNc1ccnc(Nc2ccc(OC)c(OCCCN3CCC(S(C)(=O)=O)C3)c2)n1` (stereo not shown) [Compound 282], the IC50 (usually the concentration needed to halve the response being measured) was over 10 µM.
To `CNc1cc(C)nc(Nc2ccc(OC)c(OCC3CCN(C)CC3)c2)n1` [Compound 435, N^2-(4-methoxy-3-((1-methylpiperidin-4-yl)methoxy)phenyl)-N^4,6-dimethylpyrimidine-2,4-diamine] belongs 1 to 10 µM; to `CCOc1ccc(Nc2nccc(NC)n2)cc1OCCCN1CCCC1` [Compound 430, N^2-(4-ethoxy-3-(3-(pyrrolidin-1-yl)propoxy)phenyl)-N^4-methylpyrimidine-2,4-diamine], over 10 µM.
To `CNc1ccnc(N[C@@H]2CCC[C@H](OCCCN3CCCC3)C2)n1` [Compound 427] belongs over 10 µM; to `CNc1cc(C)nc(Nc2ccc(C3CC3)c(OCCCN3CCCC3)c2)n1` [Compound 313, N^2-(4-cyclopropyl-3-(3-(pyrrolidin-1-yl)propoxy)phenyl)-N^4,6-dimethylpyrimidine-2,4-diamine], 0.1 to 1 µM; to `CNc1ccnc(Nc2ccc(OC)c(OCCCN3CC(C)C3)c2)n1` [Compound 423, N^2-(4-methoxy-3-(3-(3-methylazetidin-1-yl)propoxy)phenyl)-N^4-methylpyrimidine-2,4-diamine], 0.1 to 1 µM.
The figure for `CNc1ccnc(Nc2ccc(OC)c(OCC3CCCN3C)c2)n1` (stereo not shown) [Compound 289, N^2-(4-methoxy-3-((1-methylpyrrolidin-2-yl)methoxy)phenyl)-N^4-methylpyrimidine-2,4-diamine] is under 0.1 µM; for `CNc1nc(C)cc(Nc2cc(OCCCN3CCCC3)c(OC)cn2)n1` [Compound 306, N^4-(5-methoxy-4-(3-(pyrrolidin-1-yl)propoxy)pyridin-2-yl)-N^2,6-dimethylpyrimidine-2,4-diamine] it is over 10 µM; for `CNc1cc(C)nc(Nc2ccc(OC)c(OCC3CN(CC4CC4)C3)c2)n1` [Compound 445, N^2-(3-((1-(cyclopropylmethyl)azetidin-3-yl)methoxy)-4-methoxyphenyl)-N^4,6-dimethylpyrimidine-2,4-diamine] it is 0.1 to 1 µM.
For `CNc1nc(C2CCN(C)CC2)c2cc(OC)c(OCCCN3CCCC3)cc2n1` [Compound 270], the IC50 was under 0.1 µM.
To `CNc1cc(C)nc(Nc2ccc(OC)c(OCC3CCN(C4CCC4)C3)c2)n1` (stereo not shown) [Compound 446, N^2-(3-((1-cyclobutylpyrrolidin-3-yl)methoxy)-4-methoxyphenyl)-N^4,6-dimethylpyrimidine-2,4-diamine] belongs under 0.1 µM; to `CNc1ccnc(Nc2ccc(C3CC3)c(OCCCN3CCCC3)c2)n1` [Compound 314, N^2-(4-cyclopropyl-3-(3-(pyrrolidin-1-yl)propoxy)phenyl)-N^4-methylpyrimidine-2,4-diamine], 0.1 to 1 µM; to `CNc1ccnc(Nc2ccc(OC)c(OCCCN3CCC(C#N)C3)c2)n1` (stereo not shown) [Compound 287, 1-(3-(2-methoxy-5-((4-(methylamino)pyrimidin-2-yl)amino)phenoxy)propyl)pyrrolidine-3-carbonitrile], over 10 µM.
Regarding `CNc1ccnc(Nc2ccc(OC)c(OC[C@@H]3CN(C)C[C@H]3C)c2)n1` (single isomer, unassigned) [Compound 438], the IC50 was over 10 µM.
To `CNc1ccnc(Nc2cccc(N3CCC(N)C3)c2)n1` (stereo not shown) [Compound 297] belongs over 10 µM.
The figure for `CNc1ccnc(Nc2cccc3oc(CCN(C)C)nc23)n1` [Compound 295] is over 10 µM.
The figure for `CNc1ccnc(Nc2cccc(COCCN3CCCC3)n2)c1` [Compound 267, N^4-methyl-N^2-(6-((2-(pyrrolidin-1-yl)ethoxy)methyl)pyridin-2-yl)pyridine-2,4-diamine] is over 10 µM.
For `CNc1ccnc(Nc2ccc(OC)c(OCCCN3CC[C@H](F)C3)c2)n1` [Compound 271], the IC50 lay within 0.1 to 1 µM.
As for `CCNC(=O)c1cc(Nc2nccc(NC)n2)ccn1` [Compound 291, N-ethyl-4-((4-(methylamino)pyrimidin-2-yl)amino)picolinamide], the IC50 was over 10 µM.
